Results reported in ChEMBL document CHEMBL1140149, “Discovery of bioavailable 4,4-disubstituted piperidines as potent ligands of the chemokine receptor 5 and inhibitors of the human immunodeficiency virus-1” (J Med Chem, 2008).

Molecular target: C-C chemokine receptor type 5 (Homo sapiens, UniProt P51681)
Test: Displacement of [125I]MIP-1beta from human CCR5 expressed in CHO cells
Type: cell-based
Conditions: not given

Chain of C-C chemokine receptor type 5 (P51681 whole entry): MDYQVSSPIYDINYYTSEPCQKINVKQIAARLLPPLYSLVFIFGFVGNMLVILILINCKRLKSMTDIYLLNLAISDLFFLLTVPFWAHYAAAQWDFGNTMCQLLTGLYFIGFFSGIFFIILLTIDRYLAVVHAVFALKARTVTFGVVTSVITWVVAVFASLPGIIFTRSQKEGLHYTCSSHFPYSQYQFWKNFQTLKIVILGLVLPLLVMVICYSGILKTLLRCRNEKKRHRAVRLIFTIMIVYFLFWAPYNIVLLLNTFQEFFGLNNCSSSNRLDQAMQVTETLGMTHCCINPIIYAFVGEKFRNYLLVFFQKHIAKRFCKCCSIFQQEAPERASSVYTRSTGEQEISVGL

Row | SMILES | IC50
1 | O=C1CCC(CCCN2CCC(n3c(=O)[nH]c4ccccc43)CC2)(c2ccc(Cl)c(Cl)c2)CN1Cc1ccccc1 (stereo not given) | 20000 nM
2 | Cc1nc2ccccc2n1[C@H]1C[C@H]2CC[C@@H](C1)N2CCCC1(c2ccccc2)CCN(C(=O)OC(C)(C)C)CC1 | > 31600 nM
3 | Cc1nc2ccccc2n1[C@@H]1C[C@H]2CC[C@@H](C1)N2CCCC1(c2ccc(Cl)c(Cl)c2)CCN(C(=O)OC(C)(C)C)CC1 | 20000 nM
4 | Cc1nc2ccccc2n1[C@@H]1C[C@H]2CC[C@@H](C1)N2CCCC1(c2ccccc2)CCN(C(=O)c2ccco2)CC1 | 5010 nM
5 | Cc1nc2ccccc2n1[C@@H]1C[C@H]2CC[C@@H](C1)N2CCCC1(c2ccccc2)CCN(C(=O)c2ccccc2)CC1 | 1260 nM
6 | Cc1nc2ccccc2n1[C@@H]1C[C@H]2CC[C@@H](C1)N2CCC1(c2ccccc2)CCN(C(=O)OC(C)(C)C)CC1 | 63.1 nM
7 | Cc1nc2ccccc2n1[C@@H]1C[C@H]2CC[C@@H](C1)N2CCC1(c2ccccc2)CCN(C(=O)OCc2ccccc2)CC1 | 63.1 nM
8 | Cc1nc2ccccc2n1[C@H]1C[C@H]2CC[C@@H](C1)N2CCC1(c2ccc(Cl)c(Cl)c2)CCN(C(=O)c2ccccc2)CC1 | 15.8 nM
9 | Cc1nc2ccccc2n1[C@H]1C[C@H]2CC[C@@H](C1)N2CCC1(c2cccc(Cl)c2)CCN(C(=O)c2ccccc2)CC1 | 5.25 nM
10 | Cc1nc2ccccc2n1[C@H]1C[C@H]2CC[C@@H](C1)N2CCC1(c2ccc(Cl)c(Cl)c2)CCN(C(=O)C(C)(C)C)CC1 | 7.24 nM
11 | Cc1nc2ccccc2n1[C@H]1C[C@H]2CC[C@@H](C1)N2CCC1(c2ccc(Cl)c(Cl)c2)CCN(C(=O)OC(C)(C)C)CC1 | 29.5 nM
12 | Cc1nc2ccccc2n1[C@H]1C[C@H]2CC[C@@H](C1)N2CCC1(c2cccc(Cl)c2)CCN(C(=O)OC(C)(C)C)CC1 | 5.01 nM
13 | Cc1nc2ccccc2n1[C@H]1C[C@H]2CC[C@@H](C1)N2CCC1(c2ccc(Cl)c(Cl)c2)CCN(C(=O)OC(C)(C)C)C1 (stereo not given in full) | 776 nM
14 | O=C(c1ccccc1)N1CCCC(CCCN2CCC(n3c(=O)[nH]c4ccccc43)CC2)(c2ccc(Cl)c(Cl)c2)C1 (stereo not given) | 1580 nM
15 | CN1CN(c2ccccc2)C2(CCN(CCCC3(c4ccc(Cl)c(Cl)c4)CCN(C(=O)c4ccco4)C3)CC2)C1=O (stereo not given) | 7080 nM
16 | O=C1NCN(c2ccccc2)C12CCN(CCOC1(c3ccc(Cl)c(Cl)c3)CCN(S(=O)(=O)c3ccccc3)CC1)CC2 | 2400 nM
17 | O=C1CC(CCCN2CCC3(CC2)C(=O)NCN3c2ccccc2)(c2ccc(Cl)c(Cl)c2)CN1Cc1ccccc1 (stereo not given) | 1020 nM
18 | NC(=O)C1(Nc2ccccc2)CCN(CCCC2(c3ccc(Cl)c(Cl)c3)CCCN(C(=O)c3ccccc3)C2)CC1 (stereo not given) | > 31600 nM
19 | CC(C)(C)OC(=O)N1CCC(CCN2CCC3(CC2)C(=O)NCN3c2ccccc2)(c2ccccc2)CC1 | 4570 nM

Row | SMILES | IC50
20 | CC(C)(C)OC(=O)N1CCC(CCCN2CCC(n3c(=O)[nH]c4ccccc43)CC2)(c2ccc(Cl)c(Cl)c2)CC1 | 7940 nM
21 | CC(C)(C)OC(=O)N1CCC(CCCN2CCC(n3c(=O)[nH]c4ccccc43)CC2)(c2ccccc2)CC1 | 3980 nM
22 | O=C(c1ccco1)N1CCC(CCCN2CCC3(CC2)C(=O)NCN3C2CCCCC2)(c2ccc(Cl)c(Cl)c2)C1 (stereo not given) | > 31600 nM
23 | O=C1CC(CCN2CCC3(CC2)C(=O)NCN3c2ccccc2)(c2ccc(Cl)c(Cl)c2)CN1Cc1ccccc1 (stereo not given) | 9330 nM
24 | O=C1NCN(c2ccccc2)C12CCN(CCCC1(c3ccc(Cl)c(Cl)c3)CCN(Cc3ccco3)C1)CC2 (stereo not given) | 5250 nM
25 | O=C(c1ccco1)N1CCC(CCN2CCC3(CC2)C(=O)NCN3c2ccccc2)(c2ccccc2)C1 (stereo not given) | 9330 nM
26 | O=C(c1ccco1)N1CCC(OCCN2CCC3(CC2)C(=O)NCN3c2ccccc2)(c2ccc(Cl)c(Cl)c2)CC1 | 3470 nM
27 | O=C1NCN(c2ccccc2)C12CCN(CCCC1(c3ccc(Cl)c(Cl)c3)CN(S(=O)(=O)c3ccccc3)C1)CC2 | 9120 nM
28 | O=C1NCN(c2ccccc2)C12CCN(CCOC1(c3ccc(Cl)c(Cl)c3)CCN(S(=O)(=O)c3ccccc3)C1)CC2 (stereo not given) | 20400 nM
29 | O=C1CCC(CCCN2CCC3(CC2)C(=O)NCN3c2ccccc2)(c2ccc(Cl)c(Cl)c2)CN1Cc1ccccc1 (stereo not given) | 1000 nM
30 | Cc1nc2ccccc2n1C1CC2COCC(C1)N2CCC1(c2ccccc2)CCN(C(=O)c2ccccc2)CC1 (stereo not given) | > 3160 nM
31 | O=C(c1ccco1)N1CCC(CCCN2CCC3(CC2)C(=O)NC(=O)N3c2ccccc2)(c2ccc(Cl)c(Cl)c2)C1 (stereo not given) | > 31600 nM
32 | O=C(c1ccccc1)N1CCCC(CCCN2CCC3(CC2)C(=O)NCN3c2ccccc2)(c2ccc(Cl)c(Cl)c2)C1 (stereo not given) | 447 nM
33 | O=C(C1CCCC1)N1CCC(OCCN2CCC3(CC2)C(=O)NCN3c2ccccc2)(c2ccc(Cl)c(Cl)c2)C1 (stereo not given) | 4790 nM
34 | O=C(c1ccco1)N1CCC(CCN2CCC3(CC2)C(=O)NCN3c2ccccc2)(c2ccc(Cl)c(Cl)c2)C1 (stereo not given) | 1480 nM
35 | O=C(c1ccco1)N1CCC(OCCN2CCC3(CC2)C(=O)NCN3c2ccccc2)(c2ccc(Cl)c(Cl)c2)C1 (stereo not given) | 3980 nM
36 | O=C(c1ccco1)N1CCC(CCCN2CCC3(CC2)C(=O)NCN3c2ccccc2)(c2ccc(Cl)c(Cl)c2)C1 (stereo not given) | 141 nM
37 | CC(C)(C)OC(=O)N1CCC(CCCN2CCC3(CC2)C(=O)NCN3c2ccccc2)(c2ccccc2)CC1 | 8510 nM
38 | Cc1nc2ccccc2n1[C@H]1CC2CC[C@H](C1)N2CCC1(c2ccccc2)CCN(C(=O)C2CCCC2)CC1 (single isomer, unassigned) | 20 nM

Species: Rattus norvegicus
Test: not given
Conditions: not given

Row | SMILES | LBF
39 | Cc1nc2ccccc2n1[C@H]1C[C@H]2CC[C@@H](C1)N2CCC1(c2cccc(Cl)c2)CCN(C(=O)C(C)(C)C)CC1 | 38%

System: Human immunodeficiency virus 1
Test: Antiviral activity against HIV1 Ba-L in human PBL cells by MTS assay
Type: functional, organism-based
Conditions: Human immunodeficiency virus 1, Ba-L

Row | SMILES | IC50
40 | Cc1nc2ccccc2n1[C@H]1C[C@H]2CC[C@@H](C1)N2CCC1(c2cccc(Cl)c2)CCN(C(=O)C(C)(C)C)CC1 | 1.91 nM

System: not listed separately
Test: in vivo
Conditions: rat

Row | SMILES | clearance
41 | Cc1nc2ccccc2n1[C@H]1C[C@H]2CC[C@@H](C1)N2CCC1(c2cccc(Cl)c2)CCN(C(=O)C(C)(C)C)CC1 | 21 mL/min/kg

System: not listed separately
Test: Bioavailability in rat at 1 mg/kg, po
Conditions: in vivo

Row | SMILES | bioavailability
42 | Cc1nc2ccccc2n1[C@H]1C[C@H]2CC[C@@H](C1)N2CCC1(c2cccc(Cl)c2)CCN(C(=O)C(C)(C)C)CC1 | 26%

System: Human immunodeficiency virus 1
Test: Antiviral activity against HIV1 Ba-L in human HOS cells by MTS assay
Type: functional, organism-based
Conditions: Human immunodeficiency virus 1, Ba-L

Row | SMILES | IC50
43 | Cc1nc2ccccc2n1[C@@H]1C[C@H]2CC[C@@H](C1)N2CCC1(c2ccccc2)CCN(C(=O)OC(C)(C)C)CC1 | 1260 nM
44 | Cc1nc2ccccc2n1[C@H]1C[C@H]2CC[C@@H](C1)N2CCC1(c2ccc(Cl)c(Cl)c2)CCN(C(=O)C(C)(C)C)CC1 | 33.9 nM
45 | Cc1nc2ccccc2n1[C@H]1C[C@H]2CC[C@@H](C1)N2CCC1(c2cccc(Cl)c2)CCN(C(=O)C(C)(C)C)CC1 | 14.5 nM
